The target in the first experiment is T1, human GPR40 (Homo sapiens, UniProt O14842).
T1 construct: host or cells: HEK-293
T1 sequence (O14842 whole entry): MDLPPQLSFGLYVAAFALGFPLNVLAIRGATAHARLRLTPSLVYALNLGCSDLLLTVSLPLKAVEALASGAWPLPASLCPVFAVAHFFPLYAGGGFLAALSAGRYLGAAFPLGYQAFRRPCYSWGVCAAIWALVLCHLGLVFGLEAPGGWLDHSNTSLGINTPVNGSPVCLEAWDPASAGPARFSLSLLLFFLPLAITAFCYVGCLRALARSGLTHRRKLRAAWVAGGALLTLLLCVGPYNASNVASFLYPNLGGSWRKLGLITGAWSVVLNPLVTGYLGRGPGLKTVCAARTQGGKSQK
Description: Activation of GPR40 protein: intracellular calcium change (Fluo-4, Flexstation 3) in transfected HEK-293 cells. In kind it is cell-based. The settings on record: HEK-293 cells transfected with human GPR40; intracellular calcium; read-out: EC50. As for the experimental part: The activation of GPR40 protein by a novel 3-(4-(benzyloxy)phenyl)hex-4-ynoic acid derivative of the present invention was evaluated through the change in intracellular calcium concentration due to the activity of GPR40 protein. First, HEK-293 cells were transfected with human GPR40 DNA (Origene, RC218370) by using Fugene HD (Promega, E2311). […] After 24 hours, the cell culture medium was removed, and replaced with Dulbecco's Modified Eagle Medium (DMEM, 50 μl) supplemented with 1% fetal bovine serum (FBS). For the measurement of calcium concentration, 50 μL of Fluo-4 reagent (Invitrogen, F10471) was added to each well and cultured in a 37° C. incubator for 2 hours. […] Two hours after the initiation of the culture, the prepared samples were automatically injected into the cells using Flexstation 3 (Molecular Devices), and then, the change in intracellular calcium concentration was measured using SoftMax®Pro software for 120 seconds. Here, for a non-treated group, dimethylsulfoxide (DMSO) was injected into the cells to measure the change in calcium concentration. The GPR40 protein activity was calculated from the measured calcium concentration result values using equation 1 below, and the GPR40 activity (EC50 value) by the samples was obtained. […] GPR 40 activity=(intracellular calcium concentration increased by the sample)/(intracellular calcium concentration of the non-treated group)×100 [Equation 1]
(Calcium assays in cells follow changes in intracellular calcium, usually with a dye or a luminescent sensor.)
Take `CC#CC(CC(=O)O)c1ccc(OCc2ccc(CN3CCN(c4ccc(C(F)(F)F)cc4)CC3)cc2)cc1` (centres unmarked) [Example 19, 3-(4-(4-((4-(4-(trifluoromethyl)phenyl)piperazin-1-yl)methyl)benzyloxy)phenyl)hex-4-ynoic acid]: the EC50 is over 300 nM.

As to `CC#C[C@@H](CC(=O)O)c1ccc(OCc2ccc(CN3CCN(c4ccc(C#N)cn4)CC3)cc2)cc1` [Example 45, (S)-3-(4-(4-((4-(5-cyanopyridin-2-yl)piperazin-1-yl)methyl)benzyloxy)phenyl)hex-4-ynoic acid], the EC50 is over 300 nM.

Consider `CC#C[C@@H](CC(=O)O)c1ccc(OCc2ccc(CN3CC=C(c4ccc(OCCCS(C)(=O)=O)cc4)CC3)cc2)cc1` [Example 33, (S)-3-(4-(4-((4-(4-(3-(methylsulfonyl)propoxy)phenyl)-5,6-dihydropyridin-1(2H)-yl)methyl)benzyloxy)phenyl)hex-4-ynoic acid], for which the EC50 is over 300 nM.

With “potassium (S)-3-(4-(4-((4-(4-(trifluoromethyl)phenyl)piperazin-1-yl)methyl)benzyloxy)phenyl)hex-4-ynoate [Example 24]”, the EC50 fell in the range of 200 to 300 nM.

Regarding `CC#C[C@@H](CC(=O)O)c1ccc(OCc2ccc(CN3CCN(c4ccc(C(F)(F)F)cc4)CC3)cc2)cc1` [Example 22, (S)-3-(4-(4-((4-(4-(trifluoromethyl)phenyl)piperazin-1-yl)methyl)benzyloxy)phenyl)hex-4-ynoic acid], the EC50 is over 300 nM.

As to `CC#C[C@@H](CC(=O)O)c1ccc(OCc2ccc(CN3CCc4cc(OC)ccc4C3)cc2)cc1` [Example 25, (S)-3-(4-(4-((6-methoxy-3,4-dihydroisoquinolin-2(1H)-yl)methyl)benzyloxy)phenyl)hex-4-ynoic acid], the EC50 is over 300 nM.

For `CC#C[C@@H](CC(=O)O)c1ccc(OCc2ccc(CCN3CCc4cc(OC)ccc4C3)cc2)cc1` [Example 48, (S)-3-(4-(4-(2-(6-methoxy-3,4-dihydroisoquinolin-2(1H)-yl)ethyl)benzyloxy)phenyl)hex-4-ynoic acid], the EC50 was over 300 nM.

Consider `CC#C[C@@H](CC(=O)O)c1ccc(OCc2ccc(CCN3Cc4ccccc4C3)cc2)cc1` [Example 49, (S)-3-(4-(4-(2-(isoindolin-2-yl)ethyl)benzyloxy)phenyl)hex-4-ynoic acid], for which the EC50 was over 300 nM.

For `CC#C[C@@H](CC(=O)O)c1ccc(OCc2ccc(CN3CCN(c4ccc(O)cc4)CC3)cc2)cc1` [Example 35, (S)-3-(4-(4-((4-(4-hydroxyphenyl)piperazin-1-yl)methyl)benzyloxy)phenyl)hex-4-ynoic acid], the EC50 was over 300 nM.

As for `CC#C[C@H](CC(=O)O)c1ccc(OCc2cccc(C3=CCC4(CC3)OCCO4)c2)cc1` [Example 8, (3R)-3-(4-(3-(1,4-dioxaspiro[4.5]dec-7-en-8-yl)benzyloxy)phenyl)hex-4-ynoic acid], the EC50 was over 300 nM.

Consider `CC#C[C@H](CC(=O)O)c1ccc(OCc2cccc(C3=CCC4(CC3)OCCO4)c2)cc1` [Example 10, L-lysine (3R)-3-(4-(3-(1,4-dioxaspiro[4.5]dec-7-en-8-yl)benzyloxy)phenyl)hex-4-ynoate], for which the EC50 is over 300 nM.

As for `CC#CC(CC(=O)O)c1ccc(OCc2cccc(C3=CCC(=O)CC3)c2)cc1` (centres unmarked) [Example 4, 3-(4-(3-(4-oxocyclohex-1-enyl)benzyloxy)phenyl)hex-4-ynoic acid], the EC50 is over 300 nM.

Regarding `CC#CC(CC(=O)O)c1ccc(OCc2ccc(CN3CCN(c4ccccc4)CC3)cc2)cc1` (centres unmarked) [Example 15, 3-(4-(4-((4-phenylpiperazin-1-yl)methyl)benzyloxy)phenyl)hex-4-ynoic acid], the EC50 is over 300 nM.

In the case of `CC#C[C@@H](CC(=O)O)c1ccc(OCc2ccc(CN3CC=C(c4ccccc4)CC3)cc2)cc1` [Example 28, (S)-3-(4-(4-((4-phenyl-5,6-dihydropyridin-1(2H)-yl)methyl)benzyloxy)phenyl)hex-4-ynoic acid], the EC50 is under 200 nM.

`CC#CC(CC(=O)O)c1ccc(OCc2cccc(C3=CCC4(CC3)OCCO4)c2)cc1` (centres unmarked) [Example 1, 3-(4-(3-(1,4-dioxaspiro[4.5]dec-7-en-8-yl)benzyloxy)phenyl)hex-4-ynoic acid]: the EC50 is over 300 nM.

Take `CC#C[C@@H](CC(=O)O)c1ccc(OCc2ccc(CCN3CCc4ccccc4C3)cc2)cc1` [Example 50, (S)-3-(4-(4-(2-(3,4-dihydroisoquinolin-2(1H)-yl)ethyl)benzyloxy)phenyl)hex-4-ynoic acid]: the EC50 is over 300 nM.

As for `CC#C[C@@H](CC(=O)O)c1ccc(OCc2cccc(C3=CCC4(CC3)OCCO4)c2)cc1` [Example 7, (3S)-3-(4-(3-(1,4-dioxaspiro[4.5]dec-7-en-8-yl)benzyloxy)phenyl)hex-4-ynoic Acid], the EC50 was under 200 nM.

Consider `CC#CC(CC(=O)O)c1ccc(OCc2ccc(CN3CCN(c4ccc(OCCCS(C)(=O)=O)cc4)CC3)cc2)cc1` (centres unmarked) [Example 20, 3-(4-(4-((4-(4-(3-(methylsulfonyl)propoxy)phenyl)piperazin-1-yl)methyl)benzyloxy)phenyl)hex-4-ynoic acid], for which the EC50 is over 300 nM.

For the molecule `CC#C[C@@H](CC(=O)O)c1ccc(OCc2ccc(CN3CCC(c4ccccc4)CC3)cc2)cc1` [Example 26, (S)-3-(4-(4-((4-phenylpiperidin-1-yl)methyl)benzyloxy)phenyl)hex-4-ynoic acid], the EC50 is over 300 nM.

Consider `CC#CC(CC(=O)O)c1ccc(OCc2ccc(CN3CCC(c4ccccc4)CC3)cc2)cc1` (centres unmarked) [Example 17, 3-(4-(4-((4-phenylpiperidin-1-yl)methyl)benzyloxy)phenyl)hex-4-ynoic acid], for which the EC50 was over 300 nM.

For the molecule `CC#C[C@@H](CC(=O)O)c1ccc(OCc2ccc(CN3CC=C(c4ccc(S(C)(=O)=O)cc4)CC3)cc2)cc1` [Example 32, (S)-3-(4-(4-((4-(4-(methylsulfonyl)phenyl)-5,6-dihydropyridin-1(2H)-yl)methyl)benzyloxy)phenyl)hex-4-ynoic acid], the EC50 was over 300 nM.

For `CC#CC(CC(=O)O)c1ccc(OCc2ccc(CN3CCN(c4ccc(F)cc4)CC3)cc2)cc1` (centres unmarked) [Example 18, 3-(4-(4-((4-(4-fluorophenyl)piperazin-1-yl)methyl)benzyloxy)phenyl)hex-4-ynoic acid], the EC50 was over 300 nM.

`CC#C[C@@H](CC(=O)O)c1ccc(OCc2ccc(CN3Cc4ccccc4C3)cc2)cc1` [Example 27, (S)-3-(4-(4-(isoindolin-2-ylmethyl)benzyloxy)phenyl)hex-4-ynoic acid]: the EC50 was under 200 nM.

As to `CC#C[C@@H](CC(=O)O)c1ccc(OCc2ccc(C(C)N3CCc4ccccc4C3)cc2)cc1` (stereo partly drawn) [Example 34, (3S)-3-(4-(4-(1-(3,4-dihydroisoquinolin-2(1H)-yl)ethyl)benzyloxy)phenyl)hex-4-ynoic acid], the EC50 was over 300 nM.

Regarding `CC#CC(CC(=O)O)c1ccc(OCc2ccc(CN3CCc4ccccc4C3)c(C3=CCCCC3)c2)cc1` (centres unmarked) [Example 13, 3-(4-(3-cyclohexenyl-4-((3,4-dihydroisoquinolin-2(1H)-yl)methyl)benzyloxy)phenyl)hex-4-ynoic acid], the EC50 is over 300 nM.

Regarding `CC#C[C@@H](CC(=O)O)c1ccc(OCc2ccc(CN3CCC(c4ccccc4)C3)cc2)cc1` (stereo partly drawn) [Example 46, (3S)-3-(4-(4-((3-phenylpyrrolidin-1-yl)methyl)benzyloxy)phenyl)hex-4-ynoic acid], the EC50 was over 300 nM.

The same experiment, now with this note: HEK-293 cells transfected with human GPR40; values in text; read-out: concentration activating the GPR40 protein by 50% (EC50).
`CC#C[C@@H](CC(=O)O)c1ccc(OCc2ccc(CN3CC=C(c4ccccc4)CC3)cc2)cc1` [Example 28, (S)-3-(4-(4-((4-phenyl-5,6-dihydropyridin-1(2H)-yl)methyl)benzyloxy)phenyl)hex-4-ynoic acid]: the EC50 was at most 200 nM.

Take `CC#C[C@@H](CC(=O)O)c1ccc(OCc2cccc(C3=CCC4(CC3)OCCO4)c2)cc1` [Example 7, (3S)-3-(4-(3-(1,4-dioxaspiro[4.5]dec-7-en-8-yl)benzyloxy)phenyl)hex-4-ynoic Acid]: the EC50 was at most 200 nM.

`CC#C[C@@H](CC(=O)O)c1ccc(OCc2ccc(CN3Cc4ccccc4C3)cc2)cc1` [Example 27, (S)-3-(4-(4-(isoindolin-2-ylmethyl)benzyloxy)phenyl)hex-4-ynoic acid]: the EC50 was at most 200 nM.

The test system of the next experiment is Male Sprague Dawley rats. The experiment can be described thus: Oral glucose tolerance test (OGTT) 1. Type of experiment: in vivo. The settings on record: Rattus norvegicus, 2 h; SD rats; 10 mg/kg oral; glucose 4 g/kg 30 minutes after; read-out: % AUC (reduction (%) of blood glucose AUC). As to the method: Male Sprague Dawley rats aged 8-10 weeks old were acclimated for at least 7 days, and then only healthy animals were used for the oral glucose tolerance test (OGTT test). After fasting for 16-18 hours, five rats per group were randomly grouped and orally administered with the compounds prepared in Examples 2, 3, 4, 6, 9, 12, 14, 16, 25, 29, 36, 37, 41, 43, and 44 at a dose of 10 mg/kg each. Here, as for a non-treated group (vehicle), a solution (PEG 400/Tween 80/0.25% CMC, 5%/5%/90%, v/v/v) containing 5% polyethyleneglycol/5% tween 80/0.25% carboxymethylcelluluse (CMC) was orally administered at the same dose. Glucose (4 g/kg) was orally administered at a dose of 5 ml/kg 30 minutes after each sample was administered. Then, the blood glucose was measured by using Accu-chek active strip (Roche diagnostic Co.).
Turning to `CC#C[C@@H](CC(=O)O)c1ccc(OCc2ccc(CN3CCc4cc(OC)ccc4C3)cc2)cc1` [Example 25, (S)-3-(4-(4-((6-methoxy-3,4-dihydroisoquinolin-2(1H)-yl)methyl)benzyloxy)phenyl)hex-4-ynoic acid], the inhibition in vivo at 10 mg/kg was found to be 24.6%.

With `CC#CC(CC(=O)O)c1ccc(OCc2cccc(C3=CCC(=O)CC3)c2)cc1` (centres unmarked) [Example 4, 3-(4-(3-(4-oxocyclohex-1-enyl)benzyloxy)phenyl)hex-4-ynoic acid], the inhibition in vivo at 10 mg/kg came to 16.2%.

`CC#CC(CC(=O)O)c1ccc(OCc2ccc(C3=CCC4(CC3)OCCO4)cc2)cc1` (centres unmarked) [Example 3]: the inhibition in vivo at 10 mg/kg turned out to be 12.5%.

Regarding `CC#CC(CC(=O)O)c1ccc(OCc2cccc(C3=CCC(O)CC3)c2)cc1` [Example 6, L-lysine 3-(4-(3-(4-hydroxycyclohex-1-enyl)benzyloxy)phenyl)hex-4-ynoate], the inhibition in vivo at 10 mg/kg was found to be 15.2%.

`CC#C[C@@H](CC(=O)O)c1ccc(OCc2ccc(CN3Cc4ccccc4C3)cc2)cc1` [Example 37, sodium (S)-3-(4-(4-(isoindolin-2-ylmethyl)benzyloxy)phenyl)hex-4-ynoate]: the inhibition in vivo at 10 mg/kg came out at 28.5%.

On to `CC#C[C@@H](CC(=O)O)c1ccc(OCc2ccc(CN3CCN(c4ccc(OCOC)cc4)CC3)cc2)cc1` [Example 29, (S)-3-(4-(4-((4-(4-(methoxymethoxy)phenyl)piperazin-1-yl)methyl)benzyloxy)phenyl)hex-4-ynoic acid], for which the inhibition in vivo at 10 mg/kg turned out to be 27.1%.
